For one assay, the system named is PC-3. The experiment in a line: SRB in vitro cytotoxicity, human tumor cell line. The assay is classed as cell-based. Conditions: 10^-5 M, Prostate: PC-3, read-out: growth inhibition. As to the method: Compounds 3a-g were screened by sulforhodamine-B (SRB) semi-automated assay in a battery of cell lines. […] A., et. al. (1991); Feasibility high flux anticancer screen utilizing diverse panel of human tumor cell lines in culture. J Natl Cancer Inst. 83, 757-766]. Each compound was tested in triplicate sets of experiments at 10^-4 to 10^-6 M concentrations (Table 4).
A stock solution of 2 x 10^-2M was prepared in DMSO. The stock solutions were serially diluted to obtain working test solutions with complete growth medium (RPMI-1640 medium with 2mM glutamine, 100µg/ml streptomycin, pH 7.4, sterilized by filtration and supplemented with 10% fetal bovine serum and 100 units/ml penicillin before use) containing 50 µg/ml of gentamycin to obtain working test solutions. The working test solutions were not filtered/ sterilized but microbial contamination was controlled by addition of gentamycin in complete growth medium used for dilution of stock solutions to prepare working test solutions.
In vitro cytotoxicity against human cancer cell lines was determined^2 [Monk. A., et. al. (1991); Feasibility high flux anticancer screen utilizing diverse panel of human tumor cell lines in culture. J Natl Cancer Inst. 83, 757-766] using 96-well tissue culture plates. The cells were grown in tissue culture flasks in complete growth medium at 37°C in an atmosphere of 5% CO2 and 95% relative humidity in a carbon dioxide incubator. The cell suspension of required cell density (1-2 lakhs/ml) depending on the mass doubling time of cell lines was prepared in complete growth medium for determination of cytotoxicity. The aliquots of 100 µl of cell suspension were added to each well on a 96-well tissue culture plate. The blank wells contained complete medium in place of cell suspension. Simultaneously, control experiments with positive controls containing known anticancer agents were carried out. Cells were incubated for 24 hr.
The test materials (100 µl in each well) were added after 24-hours to the wells containing cell suspension and blank wells. The cells were allowed to grow in presence of test material by further incubating the plates for 48 hours. At the end of incubation period the cell growth was stopped by gently layering trichloroacetic acid (50% TCA, 50µl/well) on top of the medium in all the wells. The plates were incubated at 4°C for 1 hr. The plates were washed five times with distilled water to remove TCA, growth medium, low molecular weight metabolites, serum proteins etc. and air-dried.
The cell growth was measured^3 [Skehan, P, Storeng, R Scudiero, D, Monks, A, Mcmahon, J, Vistica, D, Warren, J.T., Bokesch, H., Kenney, S., Boyd, M.R. (1990). New colorimetric cytotoxicity assay for anti-cancer drug screening. J Natl Cancer Inst. 82: 1107-12] by staining with Sulphorhodamine B. Sulphorhodamine B (SRB, 0.4% in 1% acetic acid, 100 µl/well) was added to each well and plates were allowed to stand at room temperature for 30 minutes. The plates were washed with 1% acetic acid four times and then dried. Tris-HCl buffer (0.01 M, pH 10.5, 100 µl/well) was added to each well to solublise the dye. The plates were shaken gently for 10 minutes on a shaker and the optical density was recorded on ELISA reader at 540 nm. The cell growth was determined by subtracting mean OD value of respective blank from the mean OD value of experimental set. Percent growth in presence of test material was calculated considering the growth in absence of any test material as 100% and in turn percent growth inhibition in presence of test material was calculated. All the experiments were carried out in quadruplicate.

The subject of another assay is HL-60 cells. The experiment in a line: Annexin V-FITC/PI flow cytometric analysis of apoptosis. The assay is classed as cell-based, human. Conditions: 24 h. As to the method: Induction of apoptosis in vitro by Compound 3b and 3f was further determined in HL-60 cells by flow cytometric assay using an Annexin V-FITC Apoptosis Detection Kit (BD Biosciences Pharmingen, San Diego, USA). Camptothecin was included in the study for comparison. Exponentially growing HL-60 cells in complete RPMI-1640 media (100 µl of 5×10^6) were plated in six well plates. 10 µl of each Compound in DMSO (5 and 10 µM concentrations) was added to the wells followed by the addition of required media (total volume 1ml). Plates were incubated at 37°C for 24 h. The cells were centrifuged at room temperature at 1500 rpm for 5 min. The pellet was washed twice with cold PBS and was re-suspended in the binding buffer (1X, 100µl) provided in the Kit. The cells were stained with Annexin V-FITC (5 µl) and Propidium Iodide [PI] (5µl) and incubated for 15 min in the dark at 25°C. Next 400µl of binding buffer was added to each tube and analyzed on a FACScan flow cytometer (Becton Dickinson, Mountainview, CA) using Cell Quest software. Cells stained with both Annexin-V-FITC and PI, containing DMSO as vehicle was used as stained control. Cells that were annexin^+ /Pr [Lower right quadrant (LR)] and annexin^+/PI^+ [Upper right quadrant (UR)] were considered as early apoptotic and late apoptotic respectively.
Background: A flow cytometer gives signals particle by particle.

The test system of the next assay is caspase-3. The experiment in a line: Caspase-3 colorimetric assay in MOLT-4 cells. The assay is classed as cell-based, Human. The note with it: 5 µg/ml, 12 hrs. As to the method: Caspase 3 activity was measured by using caspase-3 colorimetric Assay kit (R&D Systems USA). […] Cell lysates were mixed with 10µL of dithiothreitol (DTT) and 50µL reaction buffer (2X) containing 5 µL DEVD-pNA, a caspase-3 substrate, and incubated upto 24 hr at 37°C. Additional controls were included in this assay containing no cell lysate without substrate Enzyme-catalyzed release of pNA was monitored using a microplate reader at 405 nm (Fig. 2). Likewise, Caspase 6 activity was also measured using caspase-6 colorimetric Assay kit (R&D Systems USA). However, the enzyme and enzyme substrate (VEID-pNA) were different (Fig. 3). Treatment of the cells with Compound 3f induced caspase-3/6 activities. […] (Fig 2).

A further assay has as its system MOLT-4 cells. Kind of assay: Flow cytometric DNA cell cycle analysis (sub-G1 fraction). In kind it is cell-based, Human. Conditions: 24 hr. As to the method:
Effect of DNA content by cell cycle phase distribution was assessed using MOLT-4 cells. […] The incubation period was 3 hrs in case of camptothecin and 24 hrs. in rest of the treatments. The cells were then washed twice with ice-cold PBS, harvested, fixed with ice-cold PBS in 70% ethanol, and stored at -20 °C for 30 min. After fixation, the cells were incubated with RNase A (0.1 mg/ml) at 37°C for 30 min, stained with propidium iodide (50 µg/ml) for 30 min on ice in dark, and then measured for DNA content using BD-LSR Flow cytometer (Becton Dickinson, USA) equipped with electronic doublet, discrimination capability using blue (488nm) excitation from argon laser. Data were collected in list mode on 10,000 events for FL2-A vs. FL2-W and analyzed using Mod Fit 2.0 software (Fig 4). […] The sub-G1 fractions for control and camptothecin were 0.64 (Fig. 4A) and 11.92 % (Fig. 4B).

This is an account of results in patent EP2118065B1, “Substituted 1H-benz[de]isoquinoline-1,3-diones” (priority 2007, dated 2008).

Where only a bound is given, the exact number is not on record here.

As for `O=C1c2cccc3c([N+](=O)[O-])ccc(c23)C(=O)N1CCCCl` [Compound 3f, 6-Nitro-2-[3-(Chloropropyl)]-1H-benz[de]isoquinoline-1,3-dione], in the assay with PC-3, the inhibition (as a rule, the change of the read-out against control, counted positive when it falls) at 10 µM is > 50%. In addition, in the assay with HL-60 cells (5 µM), the “early apoptotic cells (Annexin V^+/PI^-), LR” value was found to be 16.4%; the “late apoptotic cells (Annexin V^+/PI^+), UR” value is recorded as 31.5%; the “total apoptotic cells (apoptotic cell population)” value was 47.9%. Moreover, in the assay with HL-60 cells (10 µM), the “early apoptotic cells (Annexin V^+/PI^-), LR” value turned out to be 11.5%; the “late apoptotic cells (Annexin V^+/PI^+), UR” value came to 81.0%; the “total apoptotic cells (apoptotic cell population)” value turned out to be 92.5%. Further, the Caspase-3 activity result in the assay on caspase-3 is on record as “maximum at 5 µg/ml at 12 hrs”. The “sub-G1 fraction (apoptotic)” value in the assay on MOLT-4 cells (1.5 µg/ml) is given as 4.52%. Moreover, the “sub-G1 fraction (apoptotic)” value in the assay with MOLT-4 cells (5 µg/ml) is recorded as 5.86%.
